Read-outs that look alike come from different tables or passages of the source.
How the values were obtained:
southern armyworm [1] = assay: Topical application, southern armyworm; assay type: in vivo, Spodoptera eridania; conditions: SAW; for Topical % Kill @ 5000 ng/insect: 24 hours
Description: (§1) Topical Application: The compounds of this invention were tested for insecticidal activity against various insect species selected from southern armyworm (Spodoptera eridania), Mexican bean beetle, (Epilachna varivestis), milkweed bug (Oncopeltus fasciatus), and cabbage looper (Tricoplusia ni) by applying to the second or third dorsal thoracic segment of each larvae a one microliter droplet containing 5 mg/mL of test compound in acetone (5000 ng/insect). The test was allowed to stand 24 hours after application and was then read to determine the percent kill.
(§2) To determine the LD50 of the compounds, the topical application test was repeated by applying various amounts of toxicant. Also included among the species tested against for this determination were tobacco budworm (Heliothis virescens), beet armyworm (Spodoptera exigua), and boll weevil (Anthonomus grandis).

milkweed bug = assay: Topical application, milkweed bug; assay type: in vivo, Oncopeltus fasciatus; conditions: MWB; for Topical % Kill @ 5000 ng/insect: 24 hours
Description: as §1, §2

Mexican bean beetle [2] = assay: Topical application, Mexican bean beetle; assay type: in vivo, Epilachna varivestis; conditions: MBB; for Topical % Kill @ 5000 ng/insect: 24 hours
Description: as §1, §2

southern armyworm [3] = assay: Foliar application, southern armyworm; assay type: in vivo; conditions: Spodoptera eridania, read-out: Foliar % Kill (ppm)
Description: (§3) Foliar Application: The activity of some of the compounds of the invention against various test species selected from pea aphid (Acyrthosiphon pisum), twospotted spider mite (Tetranychus urticae), southern armyworm (Spodoptera eridania), Mexican bean beetle (Epilachna varivestis), and cabbage looper (Tricoplusia ni) was determined by foliar application of the test compound. The test materials were formulated as aqueous solutions containing 10% acetone and 0.25% acetylphenoxypolyethoxyethanol. Activity against pea aphid was determined on English fava bean plants the leaves of which were sprayed to runoff with various concentrations of test solution prior to infestation with adult aphids. Activity against twospotted spider mite was evaluated on pinto bean plants whose leaves were sprayed to runoff with various concentrations of test solution after infestation with adult mites. Activity against the remaining species was evaluated on pinto bean plants whose leaves were sprayed to runoff with various concentrations of test solution before infestation with the appropriate immature insects. Mortality was read approximately 48 hours after treatment.

Mexican bean beetle [4] = assay: Foliar application, Mexican bean beetle; assay type: in vivo; conditions: Epilachna varivestis, read-out: Foliar % Kill (ppm)
Description: as §3

pea aphid = assay: Foliar application, pea aphid; assay type: in vivo; conditions: Acyrthosiphon pisum, read-out: Foliar % Kill (ppm)
Description: as §3

twospotted spider mite = assay: Foliar application, twospotted spider mite; assay type: in vivo; conditions: Tetranychus urticae, read-out: Foliar % Kill (ppm)
Description: as §3

cabbage looper = assay: Topical application, cabbage looper; assay type: in vivo, Tricoplusia ni; conditions: CL; for Topical % Kill @ 5000 ng/insect: 24 hours
Description: as §1, §2

Row | SMILES | Topical LD50 (southern armyworm [1]) [ng/insect] | Topical % Kill @ 5000 ng/insect (southern armyworm [1]) [%] | Topical LD50 (milkweed bug) [ng/insect] | Topical % Kill @ 5000 ng/insect (milkweed bug) [%] | Topical LD50 (Mexican bean beetle [2]) [ng/insect] | Topical % Kill @ 5000 ng/insect (Mexican bean beetle [2]) [%] | mortality at 500 ppm (southern armyworm [3]; SAW, foliar, 48 hours) [%] | mortality at 64 ppm (Mexican bean beetle [4]; MBB, foliar, 48 hours) [%] | mortality at 500 ppm (pea aphid; PA, foliar, 48 hours) [%] | mortality at 500 ppm (twospotted spider mite; TSM, foliar, 48 hours) [%] | mortality at 512 ppm (southern armyworm [3]; SAW, foliar, 512 ppm, 48 hours) [%] | mortality at 512 ppm (Mexican bean beetle [4]; MBB, foliar, 512 ppm, 48 hours) [%] | further results
1 | Cc1c(COC(=O)[C@@H]2[C@H](C=C(Cl)Cl)C2(C)C)cccc1-c1cnccn1 (relative stereo) [q, [2-methyl-3-(pyrazinyl)phenyl]methyl cis-(2,2-dichloroethenyl)-2,2-dimethylcyclopropanecarboxylate] | 2387 | 90 | 4915 | 90 | 269 | 90 | 85 | 55 | 100 |  |  |  | mortality at 16 ppm (twospotted spider mite; TSM, foliar, 48 hours): 0%
2 | Cc1c(COC(=O)[C@H]2[C@@H](C=C(Cl)C(F)(F)F)C2(C)C)cccc1-c1cnccn1 (relative stereo) [p, [2-methyl-3-(pyrazinyl)phenyl]methyl cis-3-(2-chloro-3,3,3-trifluoro-1-propenyl)-2,2-dimethylcyclopropanecarboxylate] | 1948 | 90 | 1050 | 100 | 93 | 100 | 100 | 80 | 100 | 100 |  |  | 
3 | CC1(C)[C@H](C(=O)OCc2cccc(-c3ccc(Br)o3)c2)[C@@H]1C=C(Cl)Cl (relative stereo) [l, [3-(5-bromofuranyl)phenyl]methyl cis-3-(2,2-dichloroethenyl)-2,2-dimethylcyclopropanecarboxylate] | 1819 | 100 |  | 0 |  | 35 |  |  |  |  |  |  | mortality at 512 ppm (southern armyworm [3]; 48 h): 100%; mortality at 512 ppm (Mexican bean beetle [4]; 48 h): 80%; mortality at 512 ppm (pea aphid; 48 h): 75%; mortality at 64 ppm (twospotted spider mite; 48 h): 0%
4 | CC1(C)[C@@H](C=C(Cl)Cl)[C@@H]1C(=O)OCc1cccc(-c2cccs2)c1 (relative stereo) [c, 3-(2-thienyl)phenylmethyl trans-3-(2,2-dichloroethenyl)-2,2-dimethylcyclopropanecarboxylate] | 421 | 100 |  |  |  |  |  |  |  |  |  |  | Topical % Kill @ 5000 ng/insect (cabbage looper): 0%
5 | CC1(C)[C@H](C=C(Cl)Cl)[C@@H]1C(=O)OCc1cccc(-c2cccs2)c1 (relative stereo) [b, 3-(2-thienyl)phenylmethyl cis-3-(2,2-dichloroethenyl)-2,2-dimethylcyclopropanecarboxylate] | 54 |  | 1715 |  | 471 |  |  |  |  | 0 | 95 | 80 | Topical LD50 (cabbage looper): 1275 ng/insect; mortality at 512 ppm (pea aphid; PA, foliar, 512 ppm, 48 hours): 80%
6 | Cc1c(COC(=O)[C@H]2[C@@H](C=C(Cl)C(F)(F)F)C2(C)C)cccc1-c1cccnc1 (relative stereo) [r, [2-methyl-3-(pyridin-3-yl)phenyl]methyl cis-3-(2-chloro-3,3,3-trifluoro-1-propenyl)-2,2-dimethylcyclopropanecarboxylate] | 2626 | 100 | 1047 | 100 | 863 |  | 100 | 25 | 95 |  |  |  | mortality at 16 ppm (twospotted spider mite; TSM, foliar, 48 hours): 0%
7 | CC1(C)[C@H](C=C(Cl)Cl)[C@@H]1C(=O)OCc1cccc(-c2ccco2)c1 (relative stereo) [j, [3-(2-furanyl)phenyl]methyl cis-3-(2,2-dichloroethenyl)-2,2-dimethylcyclopropanecarboxylate] | 377 | 100 |  | 0 |  | 30 |  |  | 40 | 0 | 100 | 50 | 
8 | CC1(C)C(C=C(Cl)Cl)C1C(=O)OCc1cccc(-c2cccs2)c1 (mixture of isomers) [a, 3-(2-thienyl)phenylmethyl cis,trans-3-(2,2-dichloroethenyl)-2,2-dimethylcyclopropanecarboxylate] | 148 | 100 |  |  |  |  |  |  |  |  |  |  | Topical LD50 (cabbage looper): 3649 ng/insect; Topical % Kill @ 5000 ng/insect (cabbage looper): 100%
9 | Cc1c(COC(=O)[C@H]2[C@@H](C=C(Cl)C(F)(F)F)C2(C)C)cccc1-c1ccccn1 (relative stereo) [s, [2-methyl-3-(pyridin-2-yl)phenyl]methyl cis-3-(2-chloro-3,3,3-trifluoro-1-propenyl)-2,2-dimethylcyclopropanecarboxylate] | 60 | 100 | 607 | 100 | 38 | 100 | 100 | 60 | 100 | 80 |  |  | 
10 | CC1(C)[C@H](C=C(Cl)C(F)(F)F)[C@@H]1C(=O)OCc1cccc(-c2ccco2)c1 (relative stereo) [k, [3-(2-furanyl)phenyl]methyl cis-3-(2-chloro-3,3,3-trifluoro-1-propenyl)-2,2-dimethylcyclopropanecarboxylate] | 366 | 100 |  | 40 | 510 | 90 |  |  |  |  | 100 | 100 | mortality at 512 ppm (pea aphid; PA, foliar, 512 ppm, 48 hours): 100%; mortality at 64 ppm (twospotted spider mite; TSM, foliar, 64 ppm, 48 hours): 0%
